This note sets out measurements from PubChem BioAssay (NCI).

SMILES strings stand for the structures.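 Protocol summary: plate cells (96-well), add compound at 5 concentrations, incubate 48 h, interpolate endpoints linearly. GI50: concentration for 50% inhibition of growth. TGI is the concentration that stops growth completely.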

Test systems include HOP-92 NSCLC; SF-295 CNS; SK-MEL-2 melanoma; ACHN renal; UACC-62 melanoma; NCI-H460 lung; U251 CNS; DLD-1 colon; SNB-75 CNS; NCI-H23 lung; HCT-116 colon.
Assay in all cases: NCI anticancer screen, dose series, 48 h

For the compound `CCOC(=O)NC(=O)c1cn(CCNCCO)c(=O)[nH]c1=O`, the TGI with HOP-92 NSCLC, in the assay with SF-295 CNS, in the assay on SK-MEL-2 melanoma, in the assay with ACHN renal, with UACC-62 melanoma and in the assay with NCI-H460 lung was more than 100 µM each time. For the same compound, the TGI in the assay on U251 CNS, in the assay with DLD-1 colon, with SNB-75 CNS, in the assay on NCI-H23 lung and with HCT-116 colon was more than 100 µM in each case.
Regarding `OCCCNc1nc(=S)[nH]c2[nH]ncc12`, the GI50 in the assay with HOP-92 NSCLC is 65.6 µM; with SF-295 CNS, 49 µM; in the assay on SK-MEL-2 melanoma, 53.2 µM; in the assay with ACHN renal, 40 µM; in the assay with UACC-62 melanoma, 30 µM; with NCI-H460 lung, 30.5 µM. The figures for the GI50 in the assay on U251 CNS, in the assay with SNB-75 CNS and with NCI-H23 lung were 40.1 µM, more than 100 µM and 51.7 µM, respectively. Moreover, the TGI with HOP-92 NSCLC, in the assay on SF-295 CNS, in the assay with SK-MEL-2 melanoma, with ACHN renal, in the assay on UACC-62 melanoma and in the assay with NCI-H460 lung was more than 100 µM each time. For the same compound, the TGI in the assay with U251 CNS, with SNB-75 CNS and with NCI-H23 lung was more than 100 µM throughout.
As for `COc1ccc(CC2CCc3nc(N)nc(N)c3C2)cc1OC` (centres undefined), the TGI with HOP-92 NSCLC is more than 100 µM; in the assay with SF-295 CNS, more than 41.4 µM; in the assay with SK-MEL-2 melanoma, more than 91.6 µM; in the assay with ACHN renal it was more than 63.1 µM; with UACC-62 melanoma it was more than 36.9 µM; in the assay with NCI-H460 lung, more than 48.6 µM. The TGI in the assay on U251 CNS is more than 100 µM; in the assay with SNB-75 CNS it was more than 100 µM; with NCI-H23 lung it was more than 50 µM; in the assay with HCT-116 colon it was more than 100 µM.
Regarding `c1nc(N2CC2)c2cnn(C3CCCCO3)c2n1` (centres undefined), the TGI in the assay on HOP-92 NSCLC, with SF-295 CNS, in the assay on SK-MEL-2 melanoma, with ACHN renal, in the assay with UACC-62 melanoma and in the assay with NCI-H460 lung was more than 100 µM throughout. The TGI with U251 CNS, with DLD-1 colon, in the assay on SNB-75 CNS, with NCI-H23 lung and in the assay on HCT-116 colon was more than 100 µM throughout.
Turning to `O=C(N/N=C/C=C/c1ccccc1)[C@H](O)[C@@H](O)C(=O)N/N=C/C=C/c1ccccc1`, the TGI with SF-295 CNS, in the assay with SK-MEL-2 melanoma, with ACHN renal, in the assay with UACC-62 melanoma, in the assay with NCI-H460 lung and with U251 CNS was more than 100 µM in each case. Besides, the TGI in the assay on DLD-1 colon, with NCI-H23 lung and in the assay with HCT-116 colon was more than 100 µM in each case.
